How the values were obtained:
SR = experiment: NCI60 anti-cancer screening; settings: for GI50 / CC50: Homo sapiens; for CC50: read-out: LC 50%; for GI 100%: Leukemia
UO-31 = experiment: NCI60 anti-cancer screening; settings: for GI50 / CC50: Homo sapiens; for GI50 / GI 100%: UO-31; for CC50: UO-31, read-out: LC 50%; for GI 100%: Renal Cancer
HL-60(TB) = settings: Leukemia
[1] = system: BJ-derived cell lines (BJ-TERT/LT/ST/RAS^V12 cells); experiment: Vi-Cell analysis (trypan blue exclusion); assay type: cell-based, human; settings: 24 hours
Experimental: 200,000 cells were seeded in 6-well plates and treated with the indicated amount of 2-fold dilution series concentration of a candidate compound in 2 mL BJ growth medium. After 24 hours, cells were released with trypsin/EDTA, harvested in 1.1 mL growth medium, and transferred to a Vi-Cell (Beckman Coulter) disposable cup. After, trypan blue staining, 100 images of sample were taken and analysis of the images was carried out automatically by a Vi-Cell cell viability analyzer (Beckman Coulter).

[2] = system: BJ-TERT/LT/ST/RAS^V12 cells; experiment: Counter screening with biologically active compounds; assay type: cell-based, human; settings: for biologically active compounds that suppress compound-induced cell death: 36 bioactive compounds of Table 1, 24 hours, alamar blue
Experimental: Biologically active compounds listed in Table 1 were dissolved in BJ medium at 10× final concentration and aliquoted into eppendorf tubes. 100 μL of each 10× solution was transferred to column 1 to column 12 or column 13 to column 24 of a single row in a 384-well daughter plate. This plate was designated as ‘10× biologically active plate’. In order to prepare lethal compound solution, Erastin and compounds 3, 6, 27, and 36 were dissolved in BJ medium at a concentration of 100 μg/mL, 400 μg/mL, 400 μg/mL, 100 μg/mL, and 200 μg/mL, respectively. Empty daughter plates were filled with 50 μL BJ media except for columns 5 and 13 where 100 μL of each lethal solution was transferred. After lethal solution transfer, 2-fold dilution series across columns 5 to 12 and columns 13 to 20 was made by transferring 50 μL compound solution to the next column successively (8-point dilution series), with mixing. These five plates were each designated ‘10× lethal plate’. Five assay plates were prepared by seeding 4,000 BJ-TERT/LT/ST/RAS^V12 cells per well in 32 μL of growth media in black, clear bottom 384-well plates. Cells in assay plates were first treated with biologically active compounds by transferring 4 μL from the 10× inhibitor plate. Cells were then treated with each lethal compound in a 2-fold dilution series by transferring 4 μL solution from each 10× lethal plate. […] Percent growth inhibition (% GI) was calculated by the following formula using fluorescence intensity values: % GI=100*(1−(X−N)/([…])) wherein X is the fluorescent intensity value measured at 590 nm for cells treated with biologically active compound and lethal compound; N is the fluorescent intensity value measured at 590 nm for a control containing no cells (i.e. biologically active compound in growth media); and P is the fluorescent intensity value measured at 590 nm for a control containing no lethal compound (i.e., cells treated with biologically active compound). Counter Screening with Iron Chelators

UACC-62 = experiment: NCI60 anti-cancer screening; settings: for GI50 / CC50: Homo sapiens; for GI50 / GI 100%: UACC-62; for CC50: UACC-62, read-out: LC 50%; for GI 100%: Melanoma
SK-MEL-5 = experiment: NCI60 anti-cancer screening; settings: for GI50 / CC50: Homo sapiens; for GI50 / GI 100%: SK-MEL-5; for CC50: SK-MEL-5, read-out: LC 50%; for GI 100%: Melanoma
MALME-3M = experiment: NCI60 anti-cancer screening; settings: for GI50 / CC50: Homo sapiens, Malme-3M; for CC50: read-out: LC 50%; for GI 100%: MALME-3M, Melanoma
SF-268 = experiment: NCI60 anti-cancer screening; settings: for GI50 / CC50: Homo sapiens; for GI50 / GI 100%: SF-268; for CC50: SF-268, read-out: LC 50%; for GI 100%: CNS Cancer
TK-10 = experiment: NCI60 anti-cancer screening; settings: for GI50 / CC50: Homo sapiens; for GI50 / GI 100%: TK-10; for CC50: TK-10, read-out: LC 50%; for GI 100%: Renal Cancer
HT29 = experiment: NCI60 anti-cancer screening; settings: for GI 100%: HT29, Colon Cancer; for GI50 / CC50: Homo sapiens; for GI50: HT-29; for CC50: HT-29, read-out: LC 50%
RPMI-8226 = experiment: NCI60 anti-cancer screening; settings: for GI50 / CC50: Homo sapiens; for GI50 / GI 100%: RPMI-8226; for CC50: RPMI-8226, read-out: LC 50%; for GI 100%: Leukemia
COLO 205 = experiment: NCI60 anti-cancer screening; settings: for GI 100% / GI50: COLO 205; for GI 100%: Colon Cancer; for GI50 / CC50: Homo sapiens; for CC50: COLO 205, read-out: LC 50%
SF-539 = experiment: NCI60 anti-cancer screening; settings: for GI50 / CC50: Homo sapiens; for GI50 / GI 100%: SF-539; for CC50: SF-539, read-out: LC 50%; for GI 100%: CNS Cancer
DU-145 = experiment: NCI60 anti-cancer screening; settings: for GI 100% / GI50: DU-145; for GI 100%: Prostate Cancer; for GI50 / CC50: Homo sapiens; for CC50: DU-145, read-out: LC 50%
K-562 = experiment: NCI60 anti-cancer screening
KM12 = experiment: NCI60 anti-cancer screening; settings: for GI50 / CC50: Homo sapiens; for GI50 / GI 100%: KM12; for CC50: KM12, read-out: LC 50%; for GI 100%: Colon Cancer
T-47D = experiment: NCI60 anti-cancer screening; settings: for GI50 / CC50: Homo sapiens, T47D; for CC50: read-out: LC 50%; for GI 100%: T-47D, Breast Cancer

## C=C1CCC2C(C)(C)CCC[C@]2(C)C1CC/C(C)=C\CC/C(C)=N/NC(N)=S (some centres unmarked) [Compound 36]
SR
  GI50: 1320 nM
  CC50: 8780 nM
  GI 100%: 3.4 µM
UO-31
  GI50: 125 nM
  CC50: 1470 nM
  GI 100%: 0.385 µM
HL-60(TB)
  GI 100%: 0.545 µM
[1]
  potency and selectivity by trypan blue exclusion (in words): confirmed the growth inhibitory potency and selectivity
[2]
  biologically active compounds that suppress compound-induced cell death: iron chelators (L-Mim and DFOM) and a protein synthesis inhibitor (cycloheximide) were effective
[2]; U0126 10 uM
  effect of MEK1/2 inhibitor (U0126) on compound-induced cell death: inability of MEK1/2 inhibitors to suppress
UACC-62
  GI50: 214 nM
  CC50: 853 nM
  GI 100%: 0.427 µM
SK-MEL-5
  GI50: 209 nM
  CC50: 3050 nM
  GI 100%: 0.898 µM
MALME-3M
  GI50: 550 nM
  CC50: 4570 nM
  GI 100%: 1.83 µM
SF-268
  GI50: 1090 nM
  CC50: 5740 nM
  GI 100%: 2.5 µM
TK-10
  GI50: 296 nM
  CC50: 3470 nM
  GI 100%: 1.08 µM
HT29
  GI 100%: 1.37 µM
  GI50: 322 nM
  CC50: 4100 nM
RPMI-8226
  GI50: 194 nM
  CC50: 6980 nM
  GI 100%: 0.889 µM
COLO 205
  GI 100%: 0.451 µM
  GI50: 184 nM
  CC50: 1460 nM
SF-539
  GI50: 191 nM
  CC50: 638 nM
  GI 100%: 0.349 µM
DU-145
  GI 100%: 2.35 µM
  GI50: 1140 nM
  CC50: 4840 nM
K-562; Homo sapiens, K562
  GI50: 267 nM
K-562; Homo sapiens, K562, read-out: LC 50%
  CC50: 3510 nM
K-562; K-562, Leukemia
  GI 100%: 1.08 µM
KM12
  GI50: 469 nM
  CC50: 4470 nM
  GI 100%: 1.8 µM
T-47D
  GI50: 701 nM
  CC50: > 10000 nM
  GI 100%: 3.21 µM

## COC(=O)c1ccc(C2c3[nH]c4ccccc4c3CC(C(=O)OC)N2C(=O)CCl)cc1 (centres unmarked) [Compound 27]
SR
  GI50: 400 nM
  CC50: 6580 nM
  GI 100%: 1.6 µM
UO-31
  GI50: 20 nM
  CC50: 74.3 nM
  GI 100%: 0.0385 µM
HL-60(TB)
  GI 100%: 0.537 µM
[1]
  potency and selectivity by trypan blue exclusion (in words): confirmed Compound 27 cell growth inhibition activity and selectivity
[2]
  effect of pan-caspase inhibitors (z-VAD-fmk, Boc-D-fmk) on compound-induced cell death: not blocked
  biologically active compounds that suppress compound-induced cell death: GSH, L-Mim, TLCK, DFOM, SU6656, Ro31-8220, and U0126 were effective
UACC-62
  GI50: 1210 nM
  CC50: 5040 nM
  GI 100%: 2.47 µM
SK-MEL-5
  GI50: 1380 nM
  CC50: 5160 nM
  GI 100%: 2.67 µM
MALME-3M
  GI50: 406 nM
  CC50: 4600 nM
  GI 100%: 1.53 µM
SF-268
  GI50: 69.2 nM
  CC50: 577 nM
  GI 100%: 0.218 µM
TK-10
  GI50: 1900 nM
  CC50: 8250 nM
  GI 100%: 3.96 µM
HT29
  GI 100%: 1.46 µM
  GI50: 415 nM
  CC50: 4060 nM
RPMI-8226
  GI50: 43.1 nM
  CC50: 6990 nM
  GI 100%: 2.22 µM
COLO 205
  GI 100%: 3.44 µM
  GI50: 1670 nM
  CC50: 7070 nM
SF-539
  GI50: 118 nM
  CC50: 492 nM
  GI 100%: 0.241 µM
DU-145
  GI 100%: 1.4 µM
  GI50: 308 nM
  CC50: 4010 nM
KM12
  GI50: 188 nM
  CC50: 4150 nM
  GI 100%: 1.19 µM
T-47D
  GI50: 1640 nM
  CC50: > 10000 nM
  GI 100%: 5.16 µM

Source: patent US8546421B1, “Oncogenic-RAS-signal dependent lethal compounds” (The Trustees of Columbia University in the City of New York, priority 2007, dated 2013)
